In PMC5295395, “Inhibition of PlexA1-mediated brain tumor growth and tumor-associated angiogenesis using a transmembrane domain targeting peptide” (Oncotarget, 2016):

Assays:
Assay type in all cases: cell-based, human
Rac1 = test: ELISA-based Rac1 activation assay in U373MG cells
Method: (C) Rac-1 activation assay in resting condition and after Sema3A-induced Rac-1 activation in U373 MG cells. (D) Western blot analysis of phosphorylated Akt, total Akt and tubulin in U373MG cells treated with the vehicle (LDS 72 μM), Sema3A (100 ng/ml) or Sema3A + MTP-PlexA1 (10^−7 M). The lower panel is showing the quantification of the p-Akt/Akt ratio in the different conditions. (E) MTP-PlexA1 decreases VEGFR-2 phosphorylation induced by VEGF (100 ng/ml) in HUVEC cells.
PlexA1 is a Rho-GTPase activating protein. Consistently, it has been shown that in response to Sema3A, the Rho-GTPase Rac1 is activated and sequestered at the plasma membrane. […] Moreover, it has been shown that Sema3A inhibits Akt phosphorylation through binding of Rnd1 to PlexA1. […] From these experiments we concluded that MTP-PlexA1 is able to antagonize major signaling pathways of PlexA1 receptor.

HUVEC cells [1] = test: pseudo-tube formation assay, HUVEC on matrigel; conditions: 10^−7 M, 5 h, vs vehicle; p = 0.0087
Text: (§1) We observed PlexA1 positive blood vessels in the tissue array of GBM samples (Figure 5A). […] To address this possibility we first used a transgenic zebra-fish model tg(kdrl:eGFP) highlighting the endothelial cells. This allowed us to assess the angiogenic activities in vivo by analyzing formation of intersegmental vessels (ISVs) after morpholino-based knockdown of the target.
Figure 5 MTP-PlexA1 inhibits developmental and tumor-specific PlexA1 pro-angiogenic role (A) Microphotographs illustrating the expression of PlexA1 in vascular-like structures in human glioma tissues. (Scale bar: 40 μm). (B) Morpholino-based PlexA1 knockdown in Zebrafish tg(kdrl:eGFP) line. Representative images of control, Plexin-A1 mismatch and Pexin-A1 knockdown embryos (plxna1MO) are shown 28 hours post fertilization (28hpf). […] (E) Live-monitoring of VEGF-induced HUVEC cell migration assay using the XCelligence system (transwell assay). (F) Microphotographs illustrating the expression of PlexA1 in blood vessels of the chick chorioallontoic membrane (upper left picture). Microphotographs (middle and lower left pictures) and camera lucida drawing (middle and lower right pictures) showing representative fields of observation after 24 h incubation with VEGF (100 ng/ml, +vehicle) or VEGF + MTP-PlexA1 (10^−7 M). The number of VEGF-induced new blood vessels is shown in the graph. […]

U118MG-Luc cells = test: MTT proliferation assay, U118MG-Luc; conditions: 24 h culture
HUVEC cells [2] = test: live-monitoring trans-well migration assay, HUVEC (X-Celligence); conditions: p = 0.0002
Text: as §1
Figure 5 MTP-PlexA1 inhibits developmental and tumor-specific PlexA1 pro-angiogenic role (A) Microphotographs illustrating the expression of PlexA1 in vascular-like structures in human glioma tissues. (Scale bar: 40 μm). (B) Morpholino-based PlexA1 knockdown in Zebrafish tg(kdrl:eGFP) line. Representative images of control, Plexin-A1 mismatch and Pexin-A1 knockdown embryos (plxna1MO) are shown 28 hours post fertilization (28hpf). […] (E) Live-monitoring of VEGF-induced HUVEC cell migration assay using the XCelligence system (transwell assay). (F) Microphotographs illustrating the expression of PlexA1 in blood vessels of the chick chorioallontoic membrane (upper left picture). Microphotographs (middle and lower left pictures) and camera lucida drawing (middle and lower right pictures) showing representative fields of observation after 24 h incubation with VEGF (100 ng/ml, +vehicle) or VEGF + MTP-PlexA1 (10^−7 M). The number of VEGF-induced new blood vessels is shown in the graph.

U373MG cells = test: U373MG cell proliferation

TLPAIVGIGGGGGLLLLVIVAVLIAYKRK [MTP-PlexA1, synthetic transmembrane peptide mimicking the TMD of PlexA1]
Rac1 activity, Sema3A-induced (Rac1; Sema3A-induced): significantly inhibited | Rac1 activity in the absence of ligand (Rac1; resting condition): not affecting | change of tube-like structures (HUVEC on matrigel) (HUVEC cells [1]): −68% | proliferation of U118MG-Luc cells (U118MG-Luc cells): reduced proliferation in a dose dependent manner | change of VEGFA-induced HUVEC cell migration (HUVEC cells [2]): −63% | U373MG cell proliferation, dose dependence (U373MG cells): dose-dependent reduction | change of U373MG cell proliferation, maximal effect (U373MG cells; at 10–7 M, p < 0.0001, Mann Whitney): –25%
